Counter-ions that a name gives are not always drawn.

The target of the first assay is T1, Human recombinant enteropeptidase (Homo sapiens, UniProt P98073).
T1 construct: purchased ITSI-Biosciences LLC #REN-260
T1 sequence (P98073 whole entry): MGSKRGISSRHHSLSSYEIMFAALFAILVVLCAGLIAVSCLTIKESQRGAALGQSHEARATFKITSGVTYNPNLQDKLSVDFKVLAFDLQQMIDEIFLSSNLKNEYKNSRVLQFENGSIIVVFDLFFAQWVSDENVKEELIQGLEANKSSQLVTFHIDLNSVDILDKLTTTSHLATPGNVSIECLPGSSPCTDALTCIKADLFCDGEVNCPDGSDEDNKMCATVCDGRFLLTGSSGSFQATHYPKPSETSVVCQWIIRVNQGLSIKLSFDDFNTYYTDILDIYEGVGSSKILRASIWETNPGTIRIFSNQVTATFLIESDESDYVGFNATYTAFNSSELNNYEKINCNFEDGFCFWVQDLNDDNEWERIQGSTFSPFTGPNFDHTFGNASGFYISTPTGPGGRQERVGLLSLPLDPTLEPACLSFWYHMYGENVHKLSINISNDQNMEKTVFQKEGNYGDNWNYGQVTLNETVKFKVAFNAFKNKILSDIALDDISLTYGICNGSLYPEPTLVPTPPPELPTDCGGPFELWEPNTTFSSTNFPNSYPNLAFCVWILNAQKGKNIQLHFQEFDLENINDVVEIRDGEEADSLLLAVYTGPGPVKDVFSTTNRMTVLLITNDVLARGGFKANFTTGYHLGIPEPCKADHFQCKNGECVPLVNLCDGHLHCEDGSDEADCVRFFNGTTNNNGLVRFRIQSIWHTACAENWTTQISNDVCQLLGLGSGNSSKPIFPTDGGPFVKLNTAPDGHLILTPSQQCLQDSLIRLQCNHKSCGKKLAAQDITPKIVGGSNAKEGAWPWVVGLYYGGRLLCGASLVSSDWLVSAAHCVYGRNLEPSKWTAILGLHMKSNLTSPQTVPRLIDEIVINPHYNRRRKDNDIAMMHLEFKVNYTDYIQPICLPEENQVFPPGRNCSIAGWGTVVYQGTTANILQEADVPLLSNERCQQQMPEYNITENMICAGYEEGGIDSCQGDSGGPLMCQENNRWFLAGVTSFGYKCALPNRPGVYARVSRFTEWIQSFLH
Briefly: Human enteropeptidase inhibitory activity (Test Example 1). The class given is biochemical. The following applies: 3.3 μM test compound; inhibition rate from fluorescence intensity at 2 hours after the start of the reaction. The method, then:
Human recombinant enteropeptidase (#REN-260, ITSI-Biosciences LLC) was diluted with an assay buffer (50 mM Tricine, pH 8.0, 0.01 (w/v) %, Tween 20, 10 mM CaCl2) to prepare a 24 mU/mL enzyme solution. Subsequently, 5FAM-Abu-Gly-Asp-Asp-Asp-Lys-Ile-Val-Gly-Gly-Lys(CPQ2)-Lys-Lys-NH2 (SEQ ID NO: 1, purity: 97.2%, CPC Scientific Inc.) was diluted with the assay buffer to prepare a 2.1 μM substrate solution. A test compound is dissolved in DMSO into a 1 mM solution, and the solution was diluted by 100-fold with the assay buffer to give a compound solution. To a 384-well black plate (#784076, Greiner Bio-One), 5 μL of the compound solution and 5 μL of the substrate solution were added and mixed, and 5 μL of the enzyme solution was then added to the mixture, followed by mixing to start the reaction. The fluorescence intensity was measured with a fluorescence plate reader EnVision (The Perkin-Elmer Corp.) at an excitation wavelength of 485 nm and a fluorescence wavelength of 535 nm. The same reaction as above except that the test compound was not contained was performed (test compound non-addition group). Furthermore, the same reaction as above except that the test compound and the enzyme were not contained was performed (control group). The inhibition rate was calculated using the fluorescence intensity at 2 hours after the start of the reaction by the following expression: Inhibition rate (%)=(1−((fluorescence intensity of test compound addition group)−(fluorescence intensity of control group))/((fluorescence intensity of test compound non-addition group)−(fluorescence intensity of control group)))×100
Take “4-((((10- carbamimidamido- 13-oxo-6,7,8,13- tetrahydro- dibenzo[b,f] [1,4]dioxecin-4- yl)carbonyl) carboxymethyl) amino)methyl) thiophene-2- carboxylic acid [Example 125]”: the “3.3 μM Inhibition” value worked out at 100%.

Staying with this assay, now noted: 3.3 μM test compound; inhibition rate from fluorescence intensity at 2 hours after the start of the reaction; read-out: 3.3 μM Inhibition.
In general, inhibition refers to the relative decrease from the control value, in per cent. For the compound `N=C(N)Nc1ccc2c(c1)CCCOc1c(cccc1C1=NO[C@@](CC(=O)O)(C(=O)O)C1)OC2=O` (stereo in doubt) [Example 22, 3-(10-Carbamimidamido-13-oxo-6,7,8,13-tetrahydrodibenzo[b,f][1,4]dioxecin-4-yl)-5-(carboxymethyl)-4,5-dihydro-1,2-oxazole-5-carboxylic acid], the inhibition at 3.3 µM worked out at 101%.
Turning to `N=C(N)Nc1ccc2c(c1)CCCOc1cc(C(=O)N[C@H](CC(=O)O)C(=O)O)ccc1OC2=O` (stereo in doubt) [Example 45, N-((10-carbamimidamido-13-oxo-6,7,8,13-tetrahydro-dibenzo[b,f] [1,4]dioxecin-3-yl)carbonyl)aspartic acid], the inhibition at 3.3 µM was 100%.
Same read-out and setting: next, `N=C(N)Nc1ccc2c(c1)CCCOc1c(cccc1C(=O)N[C@@H](CC(=O)O)C(=O)O)OC2=O` [Example 1, N-((10-Carbamimidamido-13-oxo-6,7,8,13-tetrahydrodibenzo[b,f][1,4]dioxecin-4-yl)carbonyl)-L-aspartic acid]: 101%; `N=C(N)Nc1ccc2c(c1)CCCOc1c(cccc1C(=O)N[C@H](CC(=O)O)C(=O)O)OC2=O` [Example 2, N-((10-Carbamimidamido-13-oxo-6,7,8,13-tetrahydrodibenzo[b,f][1,4]dioxecin-4-yl)carbonyl)-D-aspartic acid]: 101%.
Take `N=C(N)Nc1ccc2c(c1)CCCOc1c(cccc1C(=O)Nc1ccc(S(=O)(=O)O)cc1)OC2=O` [Example 5, N-(((10-carbamimidamido-13-oxo-6,7,8,13-tetrahydro-dibenzo[b,f] [1,4]dioxecin-4-yl)carbonyl)amino) benzenesulfonic acid]: the inhibition at 3.3 µM was found to be 101%.
The same measure, in the same setting: for `N=C(N)Nc1ccc2c(c1)CCCOc1c(cccc1C(=O)N[C@@H](CS(=O)(=O)O)C(=O)O)OC2=O` [Example 6, N-((10-Carbamimidamido-13-oxo-6,7,8,13-tetrahydrodibenzo[b,f][1,4]dioxecin-4-yl)carbonyl)-3-sulfo-L-alanine] the value was 101%; for `COC(=O)[C@H](CS(=O)(=O)O)NC(=O)c1cccc2c1OCCCc1cc(NC(=N)N)ccc1C(=O)O2` [Example 7, 10-carbamimidamido-4-(((2R)-1-methoxy-1-oxo-3-sulfopropan-2-yl)carbamoyl)-13-oxo-6,7,8,13-tetrahydro-dibenzo[b,f] [1,4]dioxecine], 102%; for `N=C(N)NCCC[C@H](NC(=O)c1cccc2c1OCCCc1cc(NC(=N)N)ccc1C(=O)O2)C(=O)O` [Example 8, N^~2^~-((10-carbamimidamido-13-oxo-6,7,8,13-tetrahydro-dibenzo[b,f] [1,4]dioxecin-4-yl)carbonyl)-L-arginine], 100%.
As for `N=C(N)Nc1ccc2c(c1)CCCOc1c(cccc1C(=O)N(CCC(=O)O)CCC(=O)O)OC2=O` [Example 9, 3,3′-(((10-carbamimidamido-13-oxo-6,7,8,13-tetrahydro-dibenzo[b,f] [1,4]dioxecin-4-yl)carbonyl)imino) dipropanoic acid (non-preferred name)], the inhibition at 3.3 µM amounted to 101%.
On the same count and under the same terms, next, `N=C(N)Nc1ccc2c(c1)CCCOc1c(cccc1C(=O)N[C@@H](Cc1ccc(O)cc1)C(=O)O)OC2=O` [Example 10, N-((10-carbamimidamido-13-oxo-6,7,8,13-tetrahydro-dibenzo[b,f] [1,4]dioxecin-4-yl)carbonyl)-L-tyrosine]: 101%; `N=C(N)Nc1ccc2c(c1)CCCOc1c(cccc1C(=O)NC(CC(=O)O)CC(=O)O)OC2=O` [Example 11, 3-(((10-Carbamimidamido-13-oxo-6,7,8,13-tetrahydrodibenzo[b,f][1,4]dioxecin-4-yl)carbonyl)amino)pentanedioic acid]: 101%.
With `N=C(N)Nc1ccc2c(c1)CCCOc1c(cccc1C(=O)N1CCC[C@H]1C(=O)O)OC2=O` [Example 12, 1-((10-carbamimidamido-13-oxo-6,7,8,13-tetrahydro-dibenzo[b,f] [1,4]dioxecin-4-yl)carbonyl)-L-proline], the inhibition at 3.3 µM stood at 101%.
Consider `N=C(N)Nc1ccc2c(c1)CCOc1c(cccc1C(=O)N[C@@H](CC(=O)O)C(=O)O)OC2=O` [Example 13, N-((9-Carbamimidamido-6-oxo-11,12-dihydro-6H-dibenzo[b,f][1,4]dioxonin-1-yl)carbonyl)-L-aspartic acid trifluoroacetate], for which the inhibition at 3.3 µM was found to be 101%.
Still for that read-out and setting: next, `N=C(N)Nc1ccc2c(c1)CCCOc1c(cccc1C(=O)N(CC(=O)O)CC(=O)O)OC2=O` [Example 14, 2,2′-(((10-carbamimidamido-13-oxo-6,7,8,13-tetrahydro-dibenzo[b,f] [1,4]dioxecin-4-yl)carbonyl)imino) diacetic acid]: 101%; `N=C(N)Nc1ccc2c(c1)CCOc1c(cccc1C(=O)NCCS(=O)(=O)O)OC2=O` [Example 15, 2-(((9-carbamimidamido-6-oxo-11,12-dihydro-6H-dibenzo[b,f][1,4]dioxonin-1-yl)carbonyl)amino) ethanesulfonic acid]: 101%; `N=C(N)Nc1ccc2c(c1)CCCOc1c(cccc1C(=O)N[C@@H](CCC(N)=O)C(=O)O)OC2=O` [Example 16, N^~2^~-((10-carbamimidamido-13-oxo-6,7,8,13-tetrahydro-dibenzo[b,f] [1,4]dioxecin-4-yl)carbonyl)-L-glutamine]: 101%.
Take `N=C(N)Nc1ccc2c(c1)CCCOc1c(cccc1C(=O)N[C@@H](CC(N)=O)C(=O)O)OC2=O` [Example 17, N^~2^~-((10-carbamimidamido-13-oxo-6,7,8,13-tetrahydro-dibenzo[b,f] [1,4]dioxecin-4-yl)carbonyl)-L-asparagine]: the inhibition at 3.3 µM was 100%.
Same read-out and setting: for `N=C(N)Nc1ccc2c(c1)CCCOc1c(cccc1C(=O)N[C@@H](CCC(=O)O)C(=O)O)OC2=O` [Example 18, N-((10-Carbamimidamido-13-oxo-6,7,8,13-tetrahydrodibenzo[b,f][1,4]dioxecin-4-yl)carbonyl)-L-glutamic acid] the value was 101%; for `N=C(N)Nc1ccc2c(c1)COc1c(cccc1C(=O)N[C@@H](CC(=O)O)C(=O)O)OC2=O` [Example 19, N-((9-Carbamimidamido-6-oxo-6,11-dihydrodibenzo[b,f][1,4]dioxocin-1-yl)carbonyl)-L-aspartic acid trifluoroacetate], 99%; for `C[C@@H]1CCc2cc(NC(=N)N)ccc2C(=O)Oc2cccc(C(=O)N[C@@H](CC(=O)O)C(=O)O)c2C1` [Example 20, N-((3-carbamimidamido-7-methyl-14-oxo-6,7,8,14-tetrahydro-6H-dibenzo[b,h]oxecin-9-yl)carbonyl)-L-aspartic acid], 102%.
The same measure, in the same setting: for `CC1CCCc2cc(NC(=N)N)ccc2C(=O)Oc2cccc(C(=O)N[C@@H](CC(=O)O)C(=O)O)c21` (stereo partly drawn) [Example 21, N-((3-carbamimidamido-8-methyl-14-oxo-5,7,8,14-tetrahydro-6H-dibenzo[b,h]oxecin-9-yl)carbonyl)-L-aspartic acid] the value was 102%; for `N=C(N)Nc1ccc2c(c1)CCCOc1c(cccc1C1=NOC(CC(=O)O)(C(=O)O)C1)OC2=O` (stereo not drawn) [Example 23, 3-(10-Carbamimidamido-13-oxo-6,7,8,13-tetrahydrodibenzo[b,f][1,4]dioxecin-4-yl)-5-(carboxymethyl)-4,5-dihydro-1,2-oxazole-5-carboxylic acid], 102%; for `N=C(N)Nc1ccc2c(c1)CCCOc1c(cccc1C(=O)NCP(=O)(O)O)OC2=O` [Example 25, ((((10-carbamimidamido-13-oxo-6,7,8,13-tetrahydro-dibenzo[b,f] [1,4]dioxecin-4-yl)carbonyl)amino)methyl)phosphonic acid], 102%.
Turning to `N=C(N)Nc1ccc2c(c1)CCCCc1sc(C(=O)N[C@@H](CC(=O)O)C(=O)O)cc1OC2=O` [Example 26, N-((9-Carbamimidamido-12-oxo-5,6,7,12-tetrahydro-4H-thieno[3,2-c][2]benzooxecin-2-yl)carbonyl)-L-aspartic acid], the inhibition at 3.3 µM worked out at 45%.
Same read-out and setting: for `N=C(N)Nc1ccc2c(c1)CCCOc1c(cccc1C(=O)NCS(=O)(=O)O)OC2=O` [Example 27, (((10-carbamimidamido-13-oxo-6,7,8,13-tetrahydro-dibenzo[b,f] [1,4]dioxecin-4-yl)carbonyl)amino) methanesulfonic acid] the value was 102%; for `N=C(N)Nc1ccc2c(c1)CCCOc1c(cccc1C(=O)NCCS(=O)(=O)O)OC2=O` [Example 28, 2-(((10-carbamimidamido-13-oxo-6,7,8,13-tetrahydro-dibenzo[b,f] [1,4]dioxecin-4-yl)carbonyl)amino) ethanesulfonic acid], 102%.

The record behind these values is patent US9975903B2, “Condensed heterocyclic compound” (Takeda Pharmaceutical Company Limited, priority 2014, dated 2018).
